Data taken from ChEMBL document CHEMBL2073956, “ATP-dependent transport of bile salts by rat multidrug resistance-associated protein 3 (Mrp3)” (J Biol Chem, 2000).
Where a name gives a salt, the structure may show the parent alone.

Columns and labels:
Assay type in all cases: functional, cell membranes, Membrane vesicle
[1] = molecular target: T1, Mrp3 (ATP-binding cassette sub-family C member 3) (Rattus norvegicus, UniProt O88563); test: (§1) TP_TRANSPORTER: uptake in membrane vesicles isolated from Mrp3-expressing LLC-PK1 cells; conditions: pig, membrane vesicles from Mrp3-expressing LLC-PK1 cells
[2] = molecular target: T1, Mrp3 (ATP-binding cassette sub-family C member 3); test: TP_TRANSPORTER: inhibition of Taurocholate uptake (Taurochorate: 1.2 uM, TLCAS: 20 uM) in membrane vesicles isolated from Mrp3-expressing LLC-PK1 cells; parameters: scale not given: the % may be the effect or the level left; conditions: pig, probe taurocholate, read-out: Activity
[3] = molecular target: T2, ATP-binding cassette sub-family C member 3 (MRP3) (Rattus norvegicus, UniProt O88563); test: TP_TRANSPORTER: inhibition of E217betaG uptake (E217betaG: 0.055 uM, TLC-S: 20 uM) in membrane vesicles from LLC-PK1 cells; parameters: scale not given: the % may be the effect or the level left; conditions: pig, probe E217betaG, read-out: Activity
[4] = molecular target: T1, Mrp3 (ATP-binding cassette sub-family C member 3); test: TP_TRANSPORTER: inhibition of Taurocholate uptake (Taurochorate: 1.2 uM, E217betaG: 200 uM) in membrane vesicles isolated from Mrp3-expressing LLC-PK1 cells; parameters: scale not given: the % may be the effect or the level left; conditions: pig, probe taurocholate, read-out: Activity
[5] = molecular target: T2, ATP-binding cassette sub-family C member 3 (MRP3); test: TP_TRANSPORTER: inhibition of Taurocholate uptake (Taurochorate: 1.2 uM, E217betaG: 75 uM) in membrane vesicles from LLC-PK1 cells; parameters: scale not given: the % may be the effect or the level left; conditions: pig, probe taurocholate, read-out: Activity
[6] = molecular target: T3, ATP-binding cassette sub-family C member 3 (Rattus norvegicus, UniProt O88563); test: TP_TRANSPORTER: inhibition of Taurocholate uptake (Taurochorate: 1.2 uM, GC: 50 uM) in membrane vesicles isolated from Mrp3-expressing LLC-PK1 cells; parameters: scale not given: the % may be the effect or the level left; conditions: pig, llc-pk1, 50 µM
[7] = molecular target: T3, ATP-binding cassette sub-family C member 3; test: as §1; conditions: pig, llc-pk1
[8] = molecular target: T2, ATP-binding cassette sub-family C member 3 (MRP3); test: TP_TRANSPORTER: inhibition of Taurocholate uptake (Taurochorate: 1.2 uM, CA: 500 uM) in membrane vesicles from LLC-PK1 cells; parameters: scale not given: the % may be the effect or the level left; conditions: pig, probe taurocholate, read-out: Activity
[9] = molecular target: T1, Mrp3 (ATP-binding cassette sub-family C member 3); test: TP_TRANSPORTER: inhibition of E217betaG uptake (E217betaG: 0.055 uM, GC: 200 uM) in membrane vesicles isolated from Mrp3-expressing LLC-PK1 cells; parameters: scale not given: the % may be the effect or the level left; conditions: pig, probe E217betaG, read-out: Activity
[10] = molecular target: T2, ATP-binding cassette sub-family C member 3 (MRP3); test: TP_TRANSPORTER: inhibition of E217betaG uptake (E217betaG: 0.055 uM, GC: 200 uM) in membrane vesicles from LLC-PK1 cells; parameters: scale not given: the % may be the effect or the level left; conditions: pig, probe E217betaG, read-out: Activity
[11] = molecular target: T3, ATP-binding cassette sub-family C member 3; test: (§2) TP_TRANSPORTER: uptake in membrane vesicles from LLC-PK1 cells; conditions: pig
[12] = molecular target: T1, Mrp3 (ATP-binding cassette sub-family C member 3); test: TP_TRANSPORTER: inhibition of Taurocholate uptake (TCDC-S: 50 uM) in membrane vesicles isolated from Mrp3-expressing LLC-PK1 cells; parameters: scale not given: the % may be the effect or the level left; conditions: pig, probe taurocholate, read-out: Activity
[13] = molecular target: T2, ATP-binding cassette sub-family C member 3 (MRP3); test: TP_TRANSPORTER: inhibition of E217betaG uptake (E217betaG: 0.055 uM, TCDC-S: 50 uM) in membrane vesicles from LLC-PK1 cells; parameters: scale not given: the % may be the effect or the level left; conditions: pig, probe E217betaG, read-out: Activity
[14] = molecular target: T2, ATP-binding cassette sub-family C member 3 (MRP3); test: TP_TRANSPORTER: inhibition of Taurocholate uptake (Taurochorate: 1.2 uM, TCDC-S: 50 uM) in membrane vesicles from LLC-PK1 cells; parameters: scale not given: the % may be the effect or the level left; conditions: pig, probe taurocholate, read-out: Activity
[15] = molecular target: T3, ATP-binding cassette sub-family C member 3; test: TP_TRANSPORTER: inhibition of E217betaG uptake (E217betaG: 0.055 uM, TCDC-S: 50 uM) in membrane vesicles isolated from Mrp3-expressing LLC-PK1 cells; parameters: scale not given: the % may be the effect or the level left; conditions: pig, llc-pk1, 50 µM
[16] = substrate: [H][C@]12CC[C@]3([H])[C@]([H])(CC[C@]4(C)C([C@H](C)CCC(=O)NCCS(=O)(=O)O)CC[C@@]34[H])[C@@]1(C)CC[C@@H](OS(=O)(=O)O)C2; test: as §2

C[C@H](CCC(=O)NCCS(=O)(=O)O)C1CC[C@H]2[C@@H]3CC[C@@H]4C[C@H](OS(=O)(=O)O)CC[C@]4(C)[C@H]3CC[C@]12C (stereo partly drawn)
Km [1]: 3.06 µM | activity at 20 µM [2]: 12.2% | activity at 20 µM [3]: 15.5%

C[C@]12CC[C@@H]3c4ccc(O)cc4CC[C@H]3[C@@H]1CC[C@@H]2O[C@@H]1O[C@H](C(=O)O)[C@@H](O)[C@H](O)[C@H]1O [ESTRADIOL 17B GLUCURONIDE]
activity at 200 µM [4]: 78.4% | activity at 75 µM [5]: 78.4%

C[C@H](CCC(=O)NCC(=O)O)[C@H]1CC[C@H]2[C@@H]3[C@H](O)C[C@@H]4C[C@H](O)CC[C@]4(C)[C@H]3C[C@H](O)[C@]12C [GLYCOCHOLIC ACID]
Activity [6]: 16% | Activity [7]: substrate [+] | activity at 500 µM [8]: 0% | activity at 200 µM [9]: 13.9% | activity at 200 µM [10]: 13.9% | Activity [11]: substrate [+]

C[C@H](CCC(=O)NCCS(=O)(=O)O)C1CC[C@H]2[C@@H]3[C@H](O)C[C@@H]4C[C@H](OS(=O)(=O)O)CC[C@]4(C)[C@H]3CC[C@]12C (stereo partly drawn) [TAUROCHENODEOXYCHOLATE SULFATE]
Activity [7]: substrate [+] | activity at 50 µM [12]: 27.8% | activity at 50 µM [13]: 26.2% | activity at 50 µM [14]: 27.8% | Activity [11]: substrate [+] | Activity [15]: 26.2%

B1: ATP-binding cassette sub-family C member 3 (Rattus norvegicus) (protein)
chain: MDRLCGSGELGSKFWDSNLTVYTNTPDLTPCFQNSLLAWVPCIYLWAALPCYLFYLRHHRLGYIVLSCLSRLKTALGVLLWCISWVDLFYSFHGLVHGSSPAPVFFITPLLVGITMLLATLLIQYERLRGVRSSGVLIIFWLLCVICAIIPFRSKILLALAEGKILDPFRFTTFYIYFALVLCAFILSCFQEKPPLFSPENLDTNPCPEASAGFFSRLSFWWFTKLAILGYRRPLEDSDLWSLSEEDCSHKVVQRLLEAWQKQQTQASGPQTAALEPKIAGEDEVLLKARPKTKKPSFLRALVRTFTSSLLMGACFKLIQDLSPSSTHSCSASSSGLFRPHGPYWWGFLLAGLMFVSSTMQTLILHQHYHCIFVMALRIRTAIIGVIYRKALTITNSVKREYTVGEMVNLMSVDAQRFMDVSPFINLLWSAPLQVILAIYFLWQILGPSALAGVAVIVLLIPLNGAVSMKMKTYQVQQMKFKDSRIKLMSEILNGIKVLKLYAWEPTFLEQVEGIRQGELQLLRKGAYLQAISTFIWVCTPFMVTLITLGVYVCVDKNNVLDAEKAFVSLSLFNILKIPLNLLPQLISGMTQTSVSLKRIQDFLNQDELDPQCVERKTISPGRAITIHNGTFSWSKDLPPTLHSINIQIPKGALVAVVGPVGCGKSSLVSALLGEMEKLEGAVSVKGSVAYVPQQAWIQNCTLQENVLFGQPMNPKRYQQALETCALLADLDVLPGGDQTEIGEKGINLSGGQRQRVSLARAVYSDANIFLLDDPLSAVDSHVAKHIFDQVIGPEGVLAGKTRVLVTHGISFLPQTDFIIVLADGQITEMGHYSELLQHDGSFANFLRNYAPDENQEANEGVLQHANEEVLLLEDTLSTHTDLTDTEPAIYEVRKQFMREMSSLSSEGEGQNRPVLKRYTSSLEKEVPATQTKETGALIKEEIAETGNVKLSVYWDYAKSVGLCTTLFICLLYAGQNAVAIGANVWLSAWTNDVEEHGQQNNTSVRLGVYATLGILQGLLVMLSAFTMVVGAIQAARLLHTALLHNQIRAPQSFFDTTPSGRILNRFSKDIYVIHEVLAPTILMLFNSFYTSISTIVVIVASTPLFCVVVLPLAVFYGFVQRFYVATSRQLKRLESVSRSPIFSHFSETVTGTSVIRAYGRVQDFKVLSDAKVDSNQKTTYPYIASNRWLGVHVEFVGNCVVLFSALFAVIGRNSLNPGLVGLSVSYALQVTLSLNWMIRTLSDLESNIIAVERVKEYSKTETEAPWVLESNRAPEGWPRSGVVEFRNYSVRYRPGLELVLKNLTLHVQGGEKVGIVGRTGAGKSSMTLCLFRILEAAEGEIFIDGLNVAHIGLHDLRSQLTIIPQDPILFSGTLRMNLDPFGRYSDEDIWRTLELSHLSAFVSSQPTGLDFQCSEGGDNLSVGQRQLVCLARALLRKSRVLVLDEATAAIDLETDDLIQGTIRTQFEDCTVLTIAHRLNTIMDYNRVLVLDKGVVAEFDSPVNLIAAGGIFYGMAKDAGLA
Km [16]: 3.06 µM
